#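 Cultured in 96-well plates, cells were exposed to test compound for 48 hours across five concentrations. GI50 marks 50% less growth. The concentration for full growth arrest is given as TGI.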
# What was measured:
# Assay in all cases: DTP human tumour cell line panel, 48 h
# UACC-257 melanoma = system: UACC-257 melanoma
# SK-MEL-2 melanoma = system: SK-MEL-2 melanoma
# COLO 205 colon = system: COLO 205 colon
# NCI-H23 lung = system: NCI-H23 lung
# HCT-116 colon = system: HCT-116 colon
# RXF 393 renal = system: RXF 393 renal
# MDA-MB-231 breast = system: MDA-MB-231 breast
# OVCAR-3 ovarian = system: OVCAR-3 ovarian
# CCRF-CEM leukemia = system: CCRF-CEM leukemia
# SN12C renal = system: SN12C renal
# NCI-H460 lung = system: NCI-H460 lung
# HCT-15 colon = system: HCT-15 colon
# MOLT-4 leukemia = system: MOLT-4 leukemia
# OVCAR-8 ovarian = system: OVCAR-8 ovarian
# HT29 colon = system: HT29 colon
# U251 CNS = system: U251 CNS
# K-562 leukemia = system: K-562 leukemia
# SF-268 CNS = system: SF-268 CNS
# NCI-H522 lung = system: NCI-H522 lung
# RPMI-8226 leukemia = system: RPMI-8226 leukemia
# HOP-92 NSCLC = system: HOP-92 NSCLC
# HS 578T breast = system: HS 578T breast
# UACC-62 melanoma = system: UACC-62 melanoma
# LOX IMVI melanoma = system: LOX IMVI melanoma
# OVCAR-4 ovarian = system: OVCAR-4 ovarian
# BT-549 breast = system: BT-549 breast
# M14 melanoma = system: M14 melanoma
# SR leukemia = system: SR leukemia
# HCC-2998 colon = system: HCC-2998 colon
# SK-MEL-5 melanoma = system: SK-MEL-5 melanoma
# CAKI-1 renal = system: CAKI-1 renal
# TK-10 renal = system: TK-10 renal
# A498 renal = system: A498 renal
# NCI-H226 lung = system: NCI-H226 lung
# OVCAR-5 ovarian = system: OVCAR-5 ovarian
# SF-539 CNS = system: SF-539 CNS
# MDA-MB-435 = system: MDA-MB-435
# HL-60(TB) leukemia = system: HL-60(TB) leukemia
# DU-145 prostate = system: DU-145 prostate
# MCF7 breast = system: MCF7 breast
# ACHN renal = system: ACHN renal
# NCI/ADR-RES ovarian = system: NCI/ADR-RES ovarian
# SK-MEL-28 melanoma = system: SK-MEL-28 melanoma
# MALME-3M melanoma = system: MALME-3M melanoma
# SNB-19 CNS = system: SNB-19 CNS
# T-47D breast = system: T-47D breast
# A549 NSCLC = system: A549 NSCLC
# 786-0 renal = system: 786-0 renal
# SF-295 CNS = system: SF-295 CNS
# KM12 colon = system: KM12 colon
# UO-31 renal = system: UO-31 renal
# SW-620 colon = system: SW-620 colon
# EKVX NSCLC = system: EKVX NSCLC
# SNB-75 CNS = system: SNB-75 CNS
# IGROV1 ovarian = system: IGROV1 ovarian
# HOP-62 NSCLC = system: HOP-62 NSCLC
# SK-OV-3 ovarian = system: SK-OV-3 ovarian
compound,measurement,setting,value
COc1ccc(-c2cc(-c3ccc(Cl)cc3)nc(NCCCCNc3ccnc4cc(Cl)ccc34)n2)cc1,GI50,UACC-257 melanoma,1.96 µM
same,TGI,UACC-257 melanoma,4.22 µM
same,GI50,SK-MEL-2 melanoma,20.3 µM
same,TGI,SK-MEL-2 melanoma,52.8 µM
same,GI50,COLO 205 colon,1.86 µM
same,TGI,COLO 205 colon,4.53 µM
same,GI50,NCI-H23 lung,2.61 µM
same,TGI,NCI-H23 lung,9.3 µM
same,GI50,HCT-116 colon,1.5 µM
same,TGI,HCT-116 colon,2.92 µM
same,GI50,RXF 393 renal,1.65 µM
same,TGI,RXF 393 renal,5.2 µM
same,GI50,MDA-MB-231 breast,1.72 µM
same,TGI,MDA-MB-231 breast,3.28 µM
same,GI50,OVCAR-3 ovarian,1.65 µM
same,TGI,OVCAR-3 ovarian,3.11 µM
same,GI50,CCRF-CEM leukemia,2.6 µM
same,TGI,CCRF-CEM leukemia,> 100 µM
same,GI50,SN12C renal,1.5 µM
same,TGI,SN12C renal,3.18 µM
same,GI50,NCI-H460 lung,2.04 µM
same,TGI,NCI-H460 lung,4.35 µM
same,GI50,HCT-15 colon,1.69 µM
same,TGI,HCT-15 colon,3.71 µM
same,GI50,MOLT-4 leukemia,2.65 µM
same,TGI,MOLT-4 leukemia,8.28 µM
same,GI50,OVCAR-8 ovarian,1.9 µM
same,TGI,OVCAR-8 ovarian,4.28 µM
same,GI50,HT29 colon,1.68 µM
same,TGI,HT29 colon,3.57 µM
same,GI50,U251 CNS,11 µM
same,TGI,U251 CNS,23.8 µM
same,GI50,K-562 leukemia,1.83 µM
same,TGI,K-562 leukemia,5.02 µM
same,GI50,SF-268 CNS,2.39 µM
same,TGI,SF-268 CNS,6.31 µM
same,GI50,NCI-H522 lung,3.65 µM
same,TGI,NCI-H522 lung,14.6 µM
same,GI50,RPMI-8226 leukemia,2.14 µM
same,TGI,RPMI-8226 leukemia,5.66 µM
same,GI50,HOP-92 NSCLC,1.67 µM
same,TGI,HOP-92 NSCLC,18.3 µM
same,GI50,HS 578T breast,14.6 µM
same,TGI,HS 578T breast,38.9 µM
same,GI50,UACC-62 melanoma,17.8 µM
same,TGI,UACC-62 melanoma,35.8 µM
same,GI50,LOX IMVI melanoma,1.7 µM
same,TGI,LOX IMVI melanoma,3.18 µM
same,GI50,OVCAR-4 ovarian,1.72 µM
same,TGI,OVCAR-4 ovarian,3.49 µM
same,GI50,BT-549 breast,13.4 µM
same,TGI,BT-549 breast,28.6 µM
same,GI50,M14 melanoma,2.34 µM
same,TGI,M14 melanoma,6.3 µM
same,GI50,SR leukemia,0.708 µM
same,TGI,SR leukemia,> 100 µM
same,GI50,HCC-2998 colon,1.93 µM
same,TGI,HCC-2998 colon,3.71 µM
same,GI50,SK-MEL-5 melanoma,1.7 µM
same,TGI,SK-MEL-5 melanoma,3.08 µM
same,GI50,CAKI-1 renal,10.6 µM
same,TGI,CAKI-1 renal,22.6 µM
same,GI50,TK-10 renal,3.95 µM
same,TGI,TK-10 renal,13.3 µM
same,GI50,A498 renal,4.17 µM
same,TGI,A498 renal,17.4 µM
same,GI50,NCI-H226 lung,31.8 µM
same,TGI,NCI-H226 lung,> 100 µM
same,GI50,OVCAR-5 ovarian,15.4 µM
same,TGI,OVCAR-5 ovarian,29.5 µM
same,GI50,SF-539 CNS,6.8 µM
same,TGI,SF-539 CNS,20.9 µM
same,GI50,MDA-MB-435,1.79 µM
same,TGI,MDA-MB-435,3.27 µM
same,GI50,HL-60(TB) leukemia,5.08 µM
same,TGI,HL-60(TB) leukemia,22.1 µM
same,GI50,DU-145 prostate,2.25 µM
same,TGI,DU-145 prostate,4.79 µM
same,GI50,MCF7 breast,1.82 µM
same,TGI,MCF7 breast,3.73 µM
same,GI50,ACHN renal,12.6 µM
same,TGI,ACHN renal,25.6 µM
same,GI50,NCI/ADR-RES ovarian,1.6 µM
same,TGI,NCI/ADR-RES ovarian,3.37 µM
same,GI50,SK-MEL-28 melanoma,1.76 µM
same,TGI,SK-MEL-28 melanoma,3.32 µM
same,GI50,MALME-3M melanoma,1.75 µM
same,TGI,MALME-3M melanoma,3.36 µM
same,GI50,SNB-19 CNS,11 µM
same,TGI,SNB-19 CNS,25.7 µM
same,GI50,T-47D breast,12.3 µM
same,TGI,T-47D breast,31.4 µM
same,GI50,A549 NSCLC,1.87 µM
same,TGI,A549 NSCLC,3.9 µM
same,GI50,786-0 renal,1.62 µM
same,TGI,786-0 renal,3.02 µM
same,GI50,SF-295 CNS,8.02 µM
same,TGI,SF-295 CNS,24.2 µM
same,GI50,KM12 colon,1.9 µM
same,TGI,KM12 colon,3.72 µM
same,GI50,UO-31 renal,1.83 µM
same,TGI,UO-31 renal,12.7 µM
same,GI50,SW-620 colon,1.76 µM
same,TGI,SW-620 colon,3.46 µM
same,GI50,EKVX NSCLC,13.2 µM
same,TGI,EKVX NSCLC,35.1 µM
same,GI50,SNB-75 CNS,10 µM
same,TGI,SNB-75 CNS,22.1 µM
same,GI50,IGROV1 ovarian,1.46 µM
same,TGI,IGROV1 ovarian,3.12 µM
same,GI50,HOP-62 NSCLC,1.69 µM
same,TGI,HOP-62 NSCLC,3.44 µM
same,GI50,SK-OV-3 ovarian,13 µM
same,TGI,SK-OV-3 ovarian,27.3 µM
